Structures can show the parent of a compound that is named as a salt.
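Note: Aβ(1-42) released into conditioned medium captured by ELISA after roughly 24 h compound exposure, vehicle and inhibitor controls defining maximal and minimal inhibition.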

The first assay concerns production of amyloid beta protein Aβ(1-42) in human WT-APP overexpressing CHO cells. The conditions noted are these: Homo sapiens, CHO, read-out: Aβ 42 IC50.
On to `CCOc1ccccc1CCNC(=O)c1ccc(-n2cnc(C)c2)c(OC)c1` [Example 104, N-[2-(2-ethoxyphenyl)ethyl]-3-methoxy-4-(4-methyl-1H-imidazol-1-yl)benzamide], for which the half-maximal inhibitory concentration (IC50) is 698 nM.

In the case of `COc1cc(C(=O)NCCc2c(C)[nH]c3c(Cl)cc(Cl)cc23)ccc1-n1cnc(C)c1` [Example 51, N-[2-(5,7-dichloro-2-methyl-1H-indol-3-yl)ethyl]-3-methoxy-4-(4-methyl-1H-imidazol-1-yl)benzamide], the IC50 came to 189 nM. On the same count and under the same terms, as for `COc1cc(C(=O)NCCc2ccccc2Cl)ccc1-n1cnc(C)c1` [Example 79, N-[2-(2-chlorophenyl)ethyl]-3-methoxy-4-(4-methyl-1H-imidazol-1-yl)benzamide], the figure is 495 nM; as for `COc1cc(C(=O)NC2COc3ccc(Cl)cc32)ccc1-n1cnc(C)c1` (single isomer, unassigned) [Example 128, N-(5-chloro-2,3-dihydro-1-benzofuran-3-yl)-3-methoxy-4-(4-methyl-1H-imidazol-1-yl)benzamide], 521 nM.

Staying with this assay, now noted: Homo sapiens, CHO, read-out: Aβ 42 IC50, Geometric mean of 2-8 determinations; human WT-APP overexpressing CHO cells.
For `COc1cc(C(=O)NCc2cc(-c3ccc(F)cc3)on2)ccc1-n1cnc(C)c1` [Example 116, N-{[5-(4-fluorophenyl)isoxazol-3-yl]methyl}-3-methoxy-4-(4-methyl-1H-imidazol-1-yl)benzamide], the half-maximal inhibitory concentration (IC50) is 815 nM. On the same count and under the same terms, as for `COc1cc(C(=O)NC2COc3ccc(C(F)(F)F)cc32)ccc1-n1cnc(C)c1` (stereo not drawn) [Example 130, 3-methoxy-4-(4-methyl-1H-imidazol-1-yl)-N-[5-(trifluoro-methyl)-2,3-dihydro-1-benzofuran-3-yl]benzamide], the figure is 666 nM. Take `COc1cc(C(=O)N2CC(c3cccc(Cl)c3)C2)ccc1-n1cnc(C)c1` [Example 18, 1-(4-{[3-(3-chlorophenyl)azetidin-1-yl]carbonyl}-2-methoxy-phenyl)-4-methyl-1H-imidazole]: the IC50 worked out at 660 nM. In the case of `COc1ccc(OC)c(C2CCN(C(=O)c3ccc(-n4cnc(C)c4)c(OC)c3)C2)c1` (stereo not drawn) [Example 109, 1-(4-{[3-(2,5-dimethoxyphenyl)pyrrolidin-1-yl]carbonyl}-2-methoxyphenyl)-4-methyl-1H-imidazole], the IC50 came to 739 nM. Still for that read-out and setting: with `COc1cc(C(=O)N2CCCC2COc2ccccc2C(F)(F)F)ccc1-n1cnc(C)c1` (stereo not drawn) [Example 134, 1-{2-methoxy-4-[(2-{[2-(tri-fluoromethyl)phenoxy]methyl}pyrrolidin-1-yl)carbonyl]phenyl}-4-methyl-1H-imidazole] the figure was 675 nM; with `COc1cc(C(=O)N[C@@H]2CCC[C@@H]2c2ccc(F)cc2)ccc1-n1cnc(C)c1` [Example 115, N-[(1R,2R)-2-(4-fluorophenyl)cyclopentyl]-3-methoxy-4-(4-methyl-1H-imidazol-1-yl)benzamide], 798 nM. On the same count and under the same terms, as for `COc1cc(C(=O)NCCCCc2ccccc2)ccc1-n1cnc(C)c1` [Example 61, 3-methoxy-4-(4-methyl-1H-imidazol-1-yl)-N-(4-phenyl-butyl)benzamide], the figure is 356 nM; as for `COc1cc(C(=O)NCc2ccc(F)cc2Cl)ccc1-n1cnc(C)c1` [Example 76, N-(2-chloro-4-fluorobenzyl)-3-methoxy-4-(4-methyl-1H-imidazol-1-yl)benzamide], 476 nM. As to `COc1cc(C(=O)NCc2csc3ccc(Cl)cc23)ccc1-n1cnc(C)c1` [Example 9, N-[(5-chloro-1-benzothien-3-yl)methyl]-3-methoxy-4-(4-methyl-1H-imidazol-1-yl)benzamide], the IC50 was determined as 158 nM.

The same assay, now with this note: Homo sapiens, CHO, read-out: Aβ 42 IC50, Geometric mean of at least 2 determinations; human WT-APP overexpressing CHO cells.
In the case of `COc1cc(C(=O)N2CC(COc3cccc4ccccc34)C2)ccc1-n1cnc(C)c1` [Example 135, 1-[2-methoxy-4-({3-[(1-naphthyloxy)methyl]azetidin-1-yl}carbonyl)phenyl]-4-methyl-1H-imidazole trifluoroacetate salt], the IC50 was 111 nM.

The same assay, now with this note: Homo sapiens, CHO, read-out: GM Aβ 42B IC50, Geometric Mean of 2-8 Determinations; human WT-APP overexpressing CHO cells.
Consider `COc1cc(C(=O)NCc2nnc(-c3cccc(Cl)c3)o2)ccc1-n1cnc(C)c1` [Example 5, N-{[5-(3-chlorophenyl)-1,3,4-oxadiazol-2-yl]methyl}-3-methoxy-4-(4-methyl-1H-imidazol-1-yl)benzamide], for which the IC50 was determined as 1460 nM.

Staying with this assay, now noted: read-out: Aβ 42 IC50; Geometric mean of 2-8 determinations; human WT-APP overexpressing CHO cells.
Take `COc1cc(C(=O)NC2(Cc3cccc(Cl)c3)CC2)ccc1-n1cnc(C)c1` [Example 92, N-[1-(3-chlorobenzyl)cyclopropyl]-3-methoxy-4-(4-methyl-1H-imidazol-1-yl) benzamide]: the IC50 was found to be 595 nM.

Consider `COc1cc(C(=O)NCc2ccc(F)c(C(F)(F)F)c2)ccc1-n1cnc(C)c1` [Example 66, N-[4-fluoro-3-(trifluoromethyl)benzyl]-3-methoxy-4-(4-methyl-1H-imidazol-1-yl) benzamide], for which the IC50 came to 410 nM. The same measure, in the same setting: with `COc1cc(C(=O)NCC2(c3ccc(C(F)(F)F)cc3)CCCC2)ccc1-n1cnc(C)c1` [Example 33, 3-methoxy-4-(4-methyl-1H-imidazol-1-yl)-N-({1-[4-(trifluoro-methyl)phenyl]cyclopentyl}methyl) benzamide, formic acid salt] the figure was 139 nM.

As to `COc1cc(C(=O)NCC2(c3ccccc3)CCCC2)ccc1-n1cnc(C)c1` [Example 27, 3-methoxy-4-(4-methyl-1H-imidazol-1-yl)-N-[(1-phenyl-cyclopentyl)methyl] benzamide], the IC50 was 175 nM. Still for that read-out and setting: with `COc1cc(C(=O)NCCc2cc(C)ccc2C)ccc1-n1cnc(C)c1` [Example 71, N-[2-(2,5-dimethylphenyl)ethyl]-3-methoxy-4-(4-methyl-1H-imidazol-1-yl) benzamide] the figure was 429 nM.

For `COc1cc(C(=O)NCc2cccc(Oc3ccccc3)c2)ccc1-n1cnc(C)c1` [Example 60, 3-methoxy-4-(4-methyl-1H-imidazol-1-yl)-N-(3-phenoxybenzyl) benzamide], the IC50 amounted to 353 nM. As for `COc1cc(C(=O)NCC2(c3ccc(C(F)(F)F)cc3)CCOCC2)ccc1-n1cnc(C)c1` [Example 28, 3-methoxy-4-(4-methyl-1H-imidazol-1-yl)-N-({4-[4-(tri-fluoromethyl)phenyl]tetrahydro-2H-pyran-4-yl}methyl) benzamide], the IC50 is 188 nM.

In the case of `COc1cc(C(=O)NCc2ccc(-c3ccc(Cl)cc3)s2)ccc1-n1cnc(C)c1` [Example 49, N-{[5-(4-chlorophenyl)-2-thienyl]methyl}-3-methoxy-4-(4-methyl-1H-imidazol-1-yl) benzamide], the IC50 was determined as 137 nM. As to “N-[2-(4-fluoro- phenyl)-1,1- dimethylethyl]- 3-methoxy-4- (4-methyl-1H- imidazol-1-yl) benzamide [Example 37]”, the IC50 is 519 nM. `COc1cc(C(=O)N(Cc2cc(C(C)C)ccc2C)C2CC2)ccc1-n1cnc(C)c1` [Example 125, N-cyclopropyl-N-(5-isopropyl-2-methylbenzyl)-3-methoxy-4-(4-methyl-1H-imidazol-1-yl) benzamide]: the IC50 stood at 185 nM. On to `COc1cc(C(=O)NCc2cc(C)ccc2C)ccc1-n1cnc(C)c1` [Example 82, N-(2,5-dimethylbenzyl)-3-methoxy-4-(4-methyl-1H-imidazol-1-yl) benzamide], for which the IC50 was 513 nM. Regarding `COc1cc(C(=O)NC(C)(C)c2cccc(C(F)(F)F)c2)ccc1-n1cnc(C)c1` [Example 32, 3-methoxy-4-(4-methyl-1H-imidazol-1-yl)-N-{1-methyl-1-[3-(trifluoro-methyl)phenyl]ethyl} benzamide], the 50% inhibitory concentration (IC50) was 619 nM. The same measure, in the same setting: with `COc1cc(C(=O)NCc2cccc(C(=O)c3ccccc3)c2)ccc1-n1cnc(C)c1` [Example 42, N-(3-benzoyl-benzyl)-3-methoxy-4-(4-methyl-1H-imidazol-1-yl) benzamide] the figure was 316 nM; with `COc1cccc(C2(CNC(=O)c3ccc(-n4cnc(C)c4)c(OC)c3)CCCC2)c1` [Example 65, 3-methoxy-N-{[1-(3-methoxyphenyl)cyclopentyl]methyl}-4-(4-methyl-1H-imidazol-1-yl) benzamide], 410 nM. On to `COc1cc(C(=O)NCc2ccc(Cl)cc2C)ccc1-n1cnc(C)c1` [Example 59, N-(4-chloro-2-methylbenzyl)-3-methoxy-4-(4-methyl-1H-imidazol-1-yl) benzamide], for which the IC50 is 351 nM. With `COc1cc(C(=O)N(C)Cc2cccc(C(F)(F)F)c2)ccc1-n1cnc(C)c1` [Example 20, 3-methoxy-N-methyl-4-(4-methyl-1H-imidazol-1-yl)-N-[3-(trifluoro-methyl)benzyl] benzamide], the IC50 was determined as 997 nM. Still for that read-out and setting: as for `COc1cc(C(=O)NCC2CCCC2)ccc1-n1cnc(C)c1` [Example 47, N-cyclopentyl-methyl-3-methoxy-4-(4-methyl-imidazol-1-yl)-benzamide], the figure is 1200 nM; as for `COc1cc(C(=O)NC(C)(C)c2ccc(F)c(F)c2)ccc1-n1cnc(C)c1` [Example 26, N-[1-(3,4-difluoro-phenyl)-1-methylethyl]-3-methoxy-4-(4-methyl-1H-imidazol-1-yl) benzamide], 787 nM. On the same count and under the same terms, as for `COc1cc(C(=O)NCc2ccc(OC(F)(F)F)cc2)ccc1-n1cnc(C)c1` [Example 57, 3-methoxy-4-(4-methyl-1H-imidazol-1-yl)-N-[4-(trifluoro-methoxy)benzyl] benzamide], the figure is 339 nM. For `COc1cc(C(=O)NCc2cccc(C(F)(F)F)c2F)ccc1-n1cnc(C)c1` [Example 77, N-[2-fluoro-3-(trifluoromethyl)benzyl]-3-methoxy-4-(4-methyl-1H-imidazol-1-yl) benzamide], the IC50 came out at 481 nM.

For `COc1cc(C(=O)NCc2csc(-c3cccs3)n2)ccc1-n1cnc(C)c1` [Example 44, 3-methoxy-4-(4-methyl-1H-imidazol-1-yl)-N-{[2-(2-thienyl)-1,3-thiazol-4-yl]methyl} benzamide], the concentration for half-maximal inhibition (IC50) came to 575 nM.
